Reference: patent publication US9067922B2, “Chemical compounds” (Pfizer Limited, priority 2013, dated 2015)

Biological target: URAT-1 transporter (Homo sapiens (Human), UniProt Q96S37)
Test: URAT-1 inhibitor activity: [14C]-uric acid uptake in CHO-URAT1(L)GFP#8 (CHO#8) cells, scintillation proximity
Type: cell-based
Settings: inhibition of [14C]-uric acid (30 nM) uptake into CHO#8 cells; compound 0 to 10 μM; 4 parameter logistic fit
Source text: The nucleotide sequence for the long isoform of URAT1 (NM_144585) was C-terminally fused to that of enhanced green fluorescent protein (eGFP) (hereinafter referred to as URAT1(L)GFP). The combined sequence was codon-optimised and custom synthesized. The synthesized sequence was generated in pDONR221 Gateway entry vector (Invitrogen Life Technologies) prior to cloning in pLenti6.3/V5 Gateway destination vector (Invitrogen Life Technologies).
Lentiviral particles were generated according to ViraPower HiPerform expression system procedure (Invitrogen Life Technologies) and used to transduce CHO cells. […] The clonal pools were sorted using fluorescence-activated cell sorting (FACS) on the basis of GFP expression with the gating set at the top 50% of expression into single cells which were subsequently expanded to generate clonal lines. […] This cell line was used for all screening activities and is referred to as CHO-URAT1(L)GFP#8 or CHO#8.
The potency of the compounds of formula (I) as inhibitors of the URAT-1 transporter was determined as follows.
CHO#8 cells were cultured in cell line maintenance flasks in medium consisting of Dulbecco's modified Eagle medium (DMEM) with high glucose and sodium pyruvate (4.5 g of glucose per liter, Invitrogen Life Technologies), supplemented with heat-inactivated foetal bovine serum (FBC, 10% v/v), 1×NEAA (non-essential amino acids) and blasticidin (10 μg/ml). Cultures were grown in 175 cm^2 tissue culture flasks in a humidified incubator at approximately 37° C. in approximately 95% air/5% CO2. Near confluent CHO#8 cell cultures were harvested by trypsinisation, re-suspended in culture medium and the process was repeated once or twice weekly to provide sufficient cells for use.
Assay ready flasks were generated by the same method, except the cells were not cultured in blasticidin.
Assay ready frozen cells were generated by freezing 40,000,000 cells in 1 ml of FBS (without blasticidin) containing 10% DMSO per vial. One vial was sufficient for 5 assay plates. Each vial was thawed rapidly to 37° C., washed and re-suspended in pre-warmed culture medium for seeding onto assay plates.
CHO#8 cells were seeded onto Cytostar™ 96-well plates at a density of […]. The cells were cultured for 1 day at approximately 37° C. in a humidified incubator containing approximately 5% CO2 in air. After approximately 24 hours culture, cells were used for uptake experiments.
On the day of assay, culture medium was removed from the wells and the cells were washed once with 50 μL of chloride-containing buffer (136.7 mM NaCl, 5.36 mM KCl, 0.952 mM CaCl2, 0.441 mM KH2PO4, 0.812 mM MgSO4, 5.6 mM D-glucose, 0.383 mM Na2HPO4.2H2O, 10 mM HEPES, pH 7.4 with NaOH). The cells were pre-incubated with another 50 μL of chloride-containing buffer for one hour at approximately 37° C. in a humidified incubator containing approximately 5% CO2 in air.
Assay compound plates were prepared by diluting the compounds of formula (I) with chloride-free buffer (125 mM Na-gluconate, 4.8 mM K-gluconate, 1.3 mM Ca-gluconate, 1.2 mM KH2PO4, 1.2 mM MgSO4, 5.6 mM D-glucose, 25 mM HEPES, pH 7.4 with NaOH) in 100% DMSO to a final concentration of 1% DMSO. [^14C]-Uric Uric acid working stock was made by addition of radiolabeled compound to a final concentration of 120 nM in chloride-free buffer. In all wells, the final assay concentration of solvent (DMSO) was 0.25%; the final assay concentration of [^14C]-uric acid was 30 nM in chloride-free buffer and the final compound of formula (I) concentrations ranged from 0 to 10 μM.
After pre-incubation, cells were washed with 50 μL of chloride-free buffer and another 50 μL of chloride-free buffer was added.

URAT-1 transporter, sequence (Q96S37 other isoform, or with tags, fused parts or gaps): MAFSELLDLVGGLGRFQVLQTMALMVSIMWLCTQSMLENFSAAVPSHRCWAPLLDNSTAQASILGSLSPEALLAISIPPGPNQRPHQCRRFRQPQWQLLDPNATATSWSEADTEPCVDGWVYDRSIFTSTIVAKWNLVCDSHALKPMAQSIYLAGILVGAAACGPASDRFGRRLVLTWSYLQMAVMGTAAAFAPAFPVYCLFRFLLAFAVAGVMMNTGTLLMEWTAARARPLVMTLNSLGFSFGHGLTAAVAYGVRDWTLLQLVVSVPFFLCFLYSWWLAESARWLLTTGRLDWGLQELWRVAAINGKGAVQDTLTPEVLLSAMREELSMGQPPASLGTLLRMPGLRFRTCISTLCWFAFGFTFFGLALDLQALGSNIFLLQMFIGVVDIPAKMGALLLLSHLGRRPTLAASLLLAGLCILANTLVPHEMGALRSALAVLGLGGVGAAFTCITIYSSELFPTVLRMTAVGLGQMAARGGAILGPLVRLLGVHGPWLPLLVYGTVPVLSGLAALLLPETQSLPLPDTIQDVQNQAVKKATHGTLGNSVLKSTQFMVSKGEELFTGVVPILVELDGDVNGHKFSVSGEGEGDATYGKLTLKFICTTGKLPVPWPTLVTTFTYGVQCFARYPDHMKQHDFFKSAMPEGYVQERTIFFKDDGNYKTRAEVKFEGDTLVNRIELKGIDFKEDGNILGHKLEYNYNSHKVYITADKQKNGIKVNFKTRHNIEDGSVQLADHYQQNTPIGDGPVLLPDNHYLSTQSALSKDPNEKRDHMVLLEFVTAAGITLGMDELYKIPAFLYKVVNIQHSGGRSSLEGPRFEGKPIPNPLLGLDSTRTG

IC50 [nM] | SMILES
> 10000 | N#Cc1cc(S(=O)(=O)Nc2ccc(F)cn2)ccc1Oc1ccc(C(F)(F)F)cc1 [Example 54, 3-cyano-N-(5-fluoropyridin-2-yl)-4-[4-(trifluoromethyl)phenoxy]benzenesulfonamide]
129 | N#Cc1cc(S(=O)(=O)Nc2ccc(F)cn2)ccc1Oc1ccc(Cl)c(F)c1 [Example 55, 4-(4-chloro-3-fluorophenoxy)-3-cyano-N-(5-fluoropyridin-2-yl)benzenesulfonamide]
182 | CCc1cc(F)ccc1Oc1ccc(S(=O)(=O)Nc2ccc(F)cn2)cc1C#N [Example 56, 3-cyano-4-(2-ethyl-4-fluorophenoxy)-N-(5-fluoropyridin-2-yl)benzenesulfonamide]
> 10000 | CC(C)c1cccc(Oc2ccc(S(=O)(=O)Nc3ccc(F)cn3)cc2C#N)c1 [Example 57, 3-cyano-N-(5-fluoropyridin-2-yl)-4-[3-(propan-2-yl)phenoxy]benzenesulfonamide]
> 10000 | Cc1ccc(Oc2ccc(S(=O)(=O)Nc3ccc(F)cn3)cc2C#N)cc1C#N [Example 59, 3-cyano-4-(3-cyano-4-methylphenoxy)-N-(5-fluoropyridin-2-yl)benzenesulfonamide]
92 | N#Cc1cc(Oc2ccc(S(=O)(=O)Nc3ccc(F)cn3)cc2C#N)ccc1Cl [Example 60, 4-(4-chloro-3-cyanophenoxy)-3-cyano-N-(5-fluoropyridin-2-yl)benzenesulfonamide]
39 | Cc1cc(Oc2ccc(S(=O)(=O)Nc3ccc(F)cn3)cc2C#N)ccc1C#N [Example 61, 3-cyano-4-(4-cyano-3-methylphenoxy)-N-(5-fluoropyridin-2-yl)benzenesulfonamide]
27 | N#Cc1cc(Cl)cc(Oc2ccc(S(=O)(=O)Nc3ccc(F)cn3)cc2C#N)c1 [Example 62, 4-(3-chloro-5-cyanophenoxy)-3-cyano-N-(5-fluoropyridin-2-yl)benzenesulfonamide]
321 | N#Cc1ccc(Cl)c(Oc2ccc(S(=O)(=O)Nc3ccc(F)cn3)cc2C#N)c1 [Example 63, 4-(2-chloro-5-cyanophenoxy)-3-cyano-N-(5-fluoropyridin-2-yl)benzenesulfonamide]
> 1130 | N#Cc1cc(S(=O)(=O)Nc2ccc(F)cn2)ccc1Oc1cccc(C#N)c1Cl [Example 64, 4-(2-chloro-3-cyanophenoxy)-3-cyano-N-(5-fluoropyridin-2-yl)benzenesulfonamide]
182 | N#Cc1cc(S(=O)(=O)Nc2ccc(F)cn2)ccc1Oc1cc(Cl)ccc1C#N [Example 65, 4-(5-chloro-2-cyanophenoxy)-3-cyano-N-(5-fluoropyridin-2-yl)benzenesulfonamide]
135 | COc1ccc(Oc2ccc(S(=O)(=O)Nc3ccc(F)cn3)cc2C#N)cc1C#N [Example 66, 3-cyano-4-(3-cyano-4-methoxyphenoxy)-N-(5-fluoropyridin-2-yl)benzenesulfonamide]
3520 | N#Cc1ccc(Oc2ccc(S(=O)(=O)Nc3ccc(F)cn3)cc2C#N)c(OC(F)F)c1 [Example 67, 3-cyano-4-[4-cyano-2-(difluoromethoxy)phenoxy]-N-(5-fluoropyridin-2-yl)benzenesulfonamide]
155 | N#Cc1cc(S(=O)(=O)Nc2ccc(F)cn2)ccc1Oc1cnc(C#N)c(Cl)c1 [Example 68, 4-[(5-chloro-6-cyanopyridin-3-yl)oxy]-3-cyano-N-(5-fluoropyridin-2-yl)benzenesulfonamide]
1310 | N#Cc1ccc(F)c(Oc2ccc(S(=O)(=O)Nc3ccc(F)cn3)cc2C#N)c1 [Example 69, 3-cyano-4-(5-cyano-2-fluorophenoxy)-N-(5-fluoropyridin-2-yl)benzenesulfonamide]
25 | COc1ncc(Oc2ccc(S(=O)(=O)Nc3ccc(F)cn3)cc2C#N)cc1Cl [Example 70, 4-[(5-chloro-6-methoxypyridin-3-yl)oxy]-3-cyano-N-(5-fluoropyridin-2-yl)benzenesulfonamide]
27 | COc1cc(Oc2ccc(S(=O)(=O)Nc3ccc(F)cn3)cc2C#N)ccc1Cl [Example 71, 4-(4-chloro-3-methoxyphenoxy)-3-cyano-N-(5-fluoropyridin-2-yl)benzenesulfonamide]
2210 | N#Cc1cc(S(=O)(=O)Nc2ccc(F)cn2)ccc1Oc1cccc(C#N)c1F [Example 75, 3-cyano-4-(3-cyano-2-fluorophenoxy)-N-(5-fluoropyridin-2-yl)benzenesulfonamide]
57 | COc1cc(Oc2ccc(S(=O)(=O)Nc3ccc(F)cn3)cc2C#N)ccc1C#N [Example 76, 3-cyano-4-(4-cyano-3-methoxyphenoxy)-N-(5-fluoropyridin-2-yl)benzenesulfonamide]
43 | N#Cc1cc(S(=O)(=O)Nc2ccc(F)cn2)ccc1Oc1ccc(F)c(F)c1 [Example 77, 3-cyano-4-(3,4-difluorophenoxy)-N-(5-fluoropyridin-2-yl)benzenesulfonamide]
19 | N#Cc1cc(S(=O)(=O)Nc2ccc(F)cn2)ccc1Oc1ccc(F)c(Cl)c1 [Example 78, 4-(3-chloro-4-fluorophenoxy)-3-cyano-N-(5-fluoropyridin-2-yl)benzenesulfonamide]
728 | N#Cc1cc(S(=O)(=O)Nc2ccccn2)ccc1Oc1ccc(Cl)cc1I [Example 80, 4-(4-chloro-2-iodophenoxy)-3-cyano-N-(pyridin-2-yl)benzenesulfonamide]
> 10000 | COc1cc(Cl)ccc1Oc1ccc(S(=O)(=O)Nc2cccnn2)cc1Cl [Example 81, 3-chloro-4-(4-chloro-2-methoxyphenoxy)-N-(pyridazin-3-yl)benzenesulfonamide]
> 5970 | O=S(=O)(Nc1ncccn1)c1cc(Cl)c(Oc2ccc(Cl)cc2OC(F)F)cc1F [Example 83, 5-chloro-4-[4-chloro-2-(difluoromethoxy)phenoxy]-2-fluoro-N-(pyrimidin-2-yl)benzenesulfonamide]
> 8870 | O=S(=O)(Nc1cccnn1)c1ccc(Oc2ccc(Cl)cc2OC(F)F)c(Cl)c1 [Example 84, 3-chloro-4-[4-chloro-2-(difluoromethoxy)phenoxy]-N-(pyridazin-3-yl)benzenesulfonamide]
> 10000 | O=S(=O)(Nc1cccnn1)c1cc(Cl)c(Oc2ccc(Cl)cc2OC(F)F)cc1F [Example 85, 5-chloro-4-[4-chloro-2-(difluoromethoxy)phenoxy]-2-fluoro-N-(pyridazin-3-yl)benzenesulfonamide]

SMILES | IC50 [nM]
N#Cc1cc(S(=O)(=O)Nc2ccc(F)cn2)ccc1Oc1ccc(Cl)cc1I [Example 58, 4-(4-chloro-2-iodophenoxy)-3-cyano-N-(5-fluoropyridin-2-yl)benzenesulfonamide] | 287
N#Cc1cc(F)c(Oc2ccc(S(=O)(=O)Nc3ccc(F)cn3)cc2C#N)cc1F [Example 72, 3-cyano-4-(4-cyano-2,5-difluorophenoxy)-N-(5-fluoropyridin-2-yl)benzenesulfonamide] | 77
N#Cc1cc(S(=O)(=O)Nc2ccc(F)cn2)ccc1Oc1c(Cl)cccc1C#N [Example 73, 4-(2-chloro-6-cyanophenoxy)-3-cyano-N-(5-fluoropyridin-2-yl)benzenesulfonamide] | 418
N#Cc1cc(S(=O)(=O)Nc2ccc(F)cn2)ccc1Oc1ccc(Cl)cc1OC(F)F [Example 74, 4-[4-chloro-2-(difluoromethoxy)phenoxy]-3-cyano-N-(5-fluoropyridin-2-yl)benzenesulfonamide] | > 10000
Cc1cc(Oc2ccc(S(=O)(=O)Nc3ccc(F)cn3)cc2C#N)cc(C)c1C#N [Example 79, 3-cyano-4-(4-cyano-3,5-dimethylphenoxy)-N-(5-fluoropyridin-2-yl)benzenesulfonamide] | 7
